The conditions of series [1]: human absorption data; cited from earlier work.
The target of series [2] is NHE-1 (Rattus norvegicus, UniProt P26431). The note with it: * = from rat; read-out: IC50 or Ki, NHE-1; cited from earlier work.
The target in series [3] is NHE-3 (Rattus norvegicus, UniProt P26433). The note with it: cited from earlier work.
The target of series [4] is T1, rat NHE-3 (Rattus norvegicus, UniProt P26433).
T1 construct: expressed in transfected cells; host or cells: Opossum kidney (OK) cells (ATCC), electroporated
Kind of series: Cell-based assay of NHE-3 activity (Pharmacological Test Example 1). The note with it: for IC50: OK cells expressing rat NHE-3, 0-30 uM test compound, 5 uM EIPA, read-out: rat NHE-3 Average pIC50 (converted). In a few lines:
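OK cells electroporated with rat NHE-3, loaded with 5 uM BCECF-AM in NH4Cl-HEPES (pH 7.4) for 30 min at room temperature, then acid-loaded 10 min in Na+-free choline buffer. Na+-dependent H+ antiport read as initial rate of pH-dye change; pIC50 from 3-6 replicate averages.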

Series [5] concerns fecal water content. Description: Pharmacodynamic model: effect of test compounds on fecal water content. The class given is in vivo, rat. The conditions noted are these: female Sprague Dawley rats, 3 mg/kg oral, feces collected 16 hrs; for % Fecal water: mean of 6. Here is the method:
Normal female Sprague Dawlev rats (Charles-River laboratories international, Hollister, Calif.), 7-8 weeks old with body weight 175-200 g were acclimated for at least 3 days before proceeding to experiments. The animals were provided food (Harlan Teklad 2018c) and water ad lib, through the experiment. Animals were randomly grouped with 6 rats per group.
The experiments were initiated by orally dosing test compounds at 3 mg/kg in volume of 10 ml/kg. Rats from control group were gavaged with the same volume of vehicle (water). After dosing, rats were placed in metabolic cages for 16 hrs (overnight). Food and water consumption were monitored. After sixteen hours, feces and urine were collected. The percent of fecal water was measured by weighing fecal samples before and after drying.
Representative data of % fecal water content are shown in Table 12 (data are expressed as means, with 6 animals per data point). The differences between control and treated groups were evaluated by one way ANOVA with Dunnett post tests. Results are significant if p<0.05.

Series [6] relates to urinary sodium levels. Description: Pharmacodynamic model: effect of test compounds on urinary sodium levels. The class given is in vivo, rat. The note with it: rats, several oral dose levels, corrected for sodium intake (FIGS. 3A and 3B). Here is the method:
It is anticipated that the reduction of absorption of sodium from the intestine will be reflected in reduced levels of sodium in the urine. To test this, the protocols in Example 13 were repeated, but urine was collected in addition to feces. Urine sodium levels were analyzed by ion chromatography (IC), and the amound of sodium excreted in the urine was corrected for variations in sodium intake by measuring food consumption.

The nature of series [7]: Determination of compound Cmax and AUC. The note with it: rat; Sprague-Dawley rats, oral gavage, serum 0.5-4 h; actual oral dose (mg/kg) given. It counts as in vivo. In a few lines: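 Sprague-Dawley rats dosed orally by gavage at 2.5 mg/kg; serum sampled at 0.5, 1, 2 and 4 h. Acetonitrile protein precipitation, then LC/MS/MS quantitation against a standard curve.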
The target in series [8] is NHE-1 (Homo sapiens, UniProt P19634). Description: Inhibition of NHE-1, literature data (Table 1), species not marked. It counts as cell-based. The note with it: selectivity NHE-1 over NHE-3, from Table 1. The text has this: Shown below are examples of various NHE inhibiting small molecules and their selectivity across the NHE-1, -2 and -3 isoforms. (See, e.g., B. Masereel et al., An Overview of Inhibitors of Na+/H+ Exchanger, European J. of Med. Chem., 38, pp. 547-554 (2003), the entire contents of which is incorporated by reference here for all relevant and consistent purposes). […] It is thus possible to engineer NHE-3 selectivity into a chemical series optim/zed for potency against another antiporter isoform; that is, the inhibitor classes exemplified in the art may be suitably modified for activity and selectivity against NHE-3 (or alternatively NHE-2 and/or NHE-8), as well as being modified to be rendered substantially impermeable or substantially systemically non-bioavailable.

The test system of series [9] is gastrointestinal motility. Description: Restoration of gastrointestinal motility in opioid induced constipation (loperamide). It counts as in vivo, mice. The note with it: vehicle oral / loperamide s.c. (0.3 to 6 mg/kg), 30-minute period.

Each structure is given as a SMILES string. pIC50: −log10 of the molar value. Counter-ions that a name gives are not always drawn. Like-named read-outs stand apart in the source and are kept apart here.

T1 sequence (P26433 29-831): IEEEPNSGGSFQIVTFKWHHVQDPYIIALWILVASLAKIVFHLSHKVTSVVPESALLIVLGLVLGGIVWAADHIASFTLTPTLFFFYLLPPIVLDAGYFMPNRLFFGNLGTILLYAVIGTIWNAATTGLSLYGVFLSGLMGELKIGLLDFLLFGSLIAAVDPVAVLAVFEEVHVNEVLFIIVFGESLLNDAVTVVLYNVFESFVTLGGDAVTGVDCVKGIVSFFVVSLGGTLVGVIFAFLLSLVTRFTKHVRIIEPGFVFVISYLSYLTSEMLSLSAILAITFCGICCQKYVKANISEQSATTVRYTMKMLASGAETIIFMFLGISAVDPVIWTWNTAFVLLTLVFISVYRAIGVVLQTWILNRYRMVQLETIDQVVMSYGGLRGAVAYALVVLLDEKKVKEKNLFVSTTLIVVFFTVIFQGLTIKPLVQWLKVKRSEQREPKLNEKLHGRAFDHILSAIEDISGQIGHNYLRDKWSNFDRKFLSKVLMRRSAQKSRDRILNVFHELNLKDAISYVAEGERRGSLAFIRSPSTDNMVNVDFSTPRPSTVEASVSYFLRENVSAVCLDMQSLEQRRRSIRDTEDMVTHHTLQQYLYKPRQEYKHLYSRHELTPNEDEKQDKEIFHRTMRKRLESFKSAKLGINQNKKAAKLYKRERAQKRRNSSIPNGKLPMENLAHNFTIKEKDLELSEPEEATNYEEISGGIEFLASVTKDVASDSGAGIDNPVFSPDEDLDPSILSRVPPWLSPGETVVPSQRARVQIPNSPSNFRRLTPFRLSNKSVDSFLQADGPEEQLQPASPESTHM
Sequence of NHE-1 (Homo sapiens, UniProt P19634) (P19634 whole entry, species assumed, canonical isoform): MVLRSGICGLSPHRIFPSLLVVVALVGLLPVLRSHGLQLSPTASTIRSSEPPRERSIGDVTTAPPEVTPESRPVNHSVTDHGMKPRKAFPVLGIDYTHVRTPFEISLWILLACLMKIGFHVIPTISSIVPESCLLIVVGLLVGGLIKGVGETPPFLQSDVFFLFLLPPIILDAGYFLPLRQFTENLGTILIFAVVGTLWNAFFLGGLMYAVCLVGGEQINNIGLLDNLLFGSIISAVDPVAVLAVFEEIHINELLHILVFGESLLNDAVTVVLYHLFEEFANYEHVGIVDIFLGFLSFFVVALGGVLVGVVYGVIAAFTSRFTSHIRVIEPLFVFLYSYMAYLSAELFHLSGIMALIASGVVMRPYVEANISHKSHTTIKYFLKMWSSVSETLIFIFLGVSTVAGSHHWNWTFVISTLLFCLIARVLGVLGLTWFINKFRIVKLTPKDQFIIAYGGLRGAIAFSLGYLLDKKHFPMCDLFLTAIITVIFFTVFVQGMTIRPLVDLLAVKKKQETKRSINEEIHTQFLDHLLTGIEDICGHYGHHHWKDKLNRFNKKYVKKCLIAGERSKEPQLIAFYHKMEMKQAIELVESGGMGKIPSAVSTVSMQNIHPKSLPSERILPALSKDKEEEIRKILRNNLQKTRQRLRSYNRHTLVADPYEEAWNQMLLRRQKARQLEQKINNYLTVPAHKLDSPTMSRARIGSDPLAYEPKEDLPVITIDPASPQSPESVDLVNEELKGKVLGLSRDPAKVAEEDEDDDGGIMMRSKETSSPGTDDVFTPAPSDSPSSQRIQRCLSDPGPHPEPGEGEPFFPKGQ
Sequence of NHE-3 (P26433 29-831): as the sequence (P26433 29-831) above
Sequence of NHE-1 (Rattus norvegicus, UniProt P26431) (P26431 whole entry): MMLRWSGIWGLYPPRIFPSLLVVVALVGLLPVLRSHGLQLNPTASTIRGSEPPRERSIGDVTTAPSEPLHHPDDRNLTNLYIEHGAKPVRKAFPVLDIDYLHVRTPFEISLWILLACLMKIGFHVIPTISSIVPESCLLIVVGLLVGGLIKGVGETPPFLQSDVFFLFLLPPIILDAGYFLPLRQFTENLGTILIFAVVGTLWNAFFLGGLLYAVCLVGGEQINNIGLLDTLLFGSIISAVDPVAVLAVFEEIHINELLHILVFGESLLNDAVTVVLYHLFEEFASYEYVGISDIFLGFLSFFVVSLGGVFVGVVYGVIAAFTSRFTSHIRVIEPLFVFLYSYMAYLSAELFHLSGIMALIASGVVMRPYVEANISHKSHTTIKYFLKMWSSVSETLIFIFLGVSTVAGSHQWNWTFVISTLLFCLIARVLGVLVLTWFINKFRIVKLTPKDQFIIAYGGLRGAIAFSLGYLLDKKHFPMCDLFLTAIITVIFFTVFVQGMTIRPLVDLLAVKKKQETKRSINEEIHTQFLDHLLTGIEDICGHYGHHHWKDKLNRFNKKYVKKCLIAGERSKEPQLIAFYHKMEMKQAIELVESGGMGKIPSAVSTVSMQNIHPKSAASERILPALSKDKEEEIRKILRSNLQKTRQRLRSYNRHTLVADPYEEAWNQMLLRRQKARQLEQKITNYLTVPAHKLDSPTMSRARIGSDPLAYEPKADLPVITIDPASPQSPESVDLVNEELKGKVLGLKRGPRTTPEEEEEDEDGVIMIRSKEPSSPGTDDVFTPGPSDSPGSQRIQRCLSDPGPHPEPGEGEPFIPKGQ

With `C=CCc1ccccc1OCC(O)CNC(C)C` (stereo not shown) [alprenolol], in series [1], the “% FA” value was 96%. As for `NC[C@H]1CC[C@H](C(=O)O)CC1` [tranexamic acid], the “% FA” value in [1] was 55%. Consider `CC(C)NCC(O)COc1cccc2[nH]ccc12` (stereo not shown) [pindolol], for which, in series [1], the “% FA” value is listed as 92%.

What is called pIC50 is −log10 of the IC50, conventionally taken in molar units. Take `N=C(N)NC(=O)c1nc(Cl)c(N)nc1N` [Amiloride, amiloride]: the negative-log IC50 (pIC50) in series [2] is 5.80 to 6.00; in series [3] (* = from rat, read-out: IC50 or Ki, NHE-3), below 4.00; in [3] (as restated in the text on Table 1, read-out: NHE-3 IC50), below 4.00. `CC(=O)Nc1ccc(OCC(O)CNC(C)C)cc1` (stereo not shown) [practolol]: the “% FA” value in series [1] is 95%. As to `CN1Cc2c(Cl)cc(Cl)cc2[C@H](c2ccc(S(=O)(=O)NCCOCCOCCNC(=O)COCC(=O)NCCOCCOCCNS(=O)(=O)c3ccc([C@@H]4CN(C)Cc5c(Cl)cc(Cl)cc54)cc3)cc2)C1` (single isomer, unassigned) [Example 201, 2,2′-oxybis(N-(2-(2-(2-(4-((S or R)-6,8-dichloro-2-methyl-1,2,3,4-tetrahydroisoquinolin-4-yl)phenylsulfonamido)ethoxy)ethoxy)ethyl)acetamide) bis-hydrochloride salt], the IC50 in series [4] is below 0.1 µM. For the same compound, in series [5], the “% Fecal water (% of control)” value is reported as 127% of control and the “% Fecal water” value was found to be 63%. For the same compound, the “amount of sodium excreted in the urine” value in series [6] was “diminishes significantly and dose dependently”.

What is called AUC is the area under the concentration-time curve, a measure of exposure. Broadly, the Cmax is the highest concentration seen after dosing. On to `CN1Cc2c(Cl)cc(Cl)cc2C(c2cccc(S(=O)(=O)NCCOCCOCCNC(=O)c3ccc(C(=O)NCCOCCOCCNS(=O)(=O)c4cccc(C5CN(C)Cc6c(Cl)cc(Cl)cc65)c4)cc3)c2)C1` (stereo not shown) [Example 234, N1,N4-bis(2-(2-(2-(3-(6,8-dichloro-2-methyl-1,2,3,4-tetrahydroisoquinolin-4-yl)phenylsulfonamido)ethoxy)ethoxy)ethyl)terephthalamide], for which the “rat NHE-3 Average pIC50” value in [4] was in the range of 5 to 6. Also, in [7], the AUC is below 2 ng·h/mL and the Cmax was below 2 ng/mL. In [5], the “% Fecal water (% of control)” value is given as 117% of control and the “% Fecal water” value turned out to be 58%.

Regarding `C/C(=C\c1cccc(/C=C(\C)C(=O)NC(=N)N)c1)C(=O)N=C(N)N` [Example S-2120, S-2120], the “fold more active against NHE-1 than NHE-3” value in series [8] was “over 500 fold”. With `O=C(O)c1cc(/N=N/c2ccc(O)c(C(=O)O)c2)ccc1O` [olsalazine], the “% FA” value in [1] is 2.3%.

`OC[C@H]1O[C@H](OC[C@H]2O[C@H](O[C@]3(CO)O[C@H](CO)[C@@H](O)[C@@H]3O)[C@H](O)[C@@H](O)[C@@H]2O)[C@H](O)[C@@H](O)[C@H]1O` [raffinose]: the “% FA” value in series [1] was 0.3%. For `CN1Cc2c(Cl)cc(Cl)cc2C(c2ccc(S(=O)(=O)NCCOCCOCCNC(=O)CCC(=O)NCCOCCOCCNS(=O)(=O)c3ccc(C4CN(C)Cc5c(Cl)cc(Cl)cc54)cc3)cc2)C1` (stereo not shown) [Example 177, N1,N4-bis(2-(2-(2-(4-(6,8-dichloro-2-methyl-1,2,3,4-tetrahydroisoquinolin-4-yl)phenylsulfonamido)ethoxy)ethoxy)ethyl)succinamide], the “rat NHE-3 Average pIC50” value in series [4] is given as above 7. In [7], this compound displayed an AUC below 4 ng·h/mL and a Cmax below 3.2 ng/mL. Further, in series [5], the “% Fecal water (% of control)” value is reported as 121% of control and the “% Fecal water” value amounted to 60%.

With `O=C(O)P(=O)(O)O` [foscarnet], in [1], the “% FA” value was 17%. Take `C=CCOc1ccccc1OCC(O)CNC(C)C` (stereo not shown) [oxprenolol]: the “% FA” value in series [1] is recorded as 97%. As for `O=C(O)c1cc(/N=N/c2ccc(S(=O)(=O)Nc3ccccn3)cc2)ccc1O` [sulfasalazine, reference compound], the “% FA” value in [1] is 12%.

Regarding `OC[C@H]1O[C@@H](O[C@@H]2[C@@H](CO)OC(O)(CO)[C@H]2O)[C@H](O)[C@@H](O)[C@H]1O` (mixture of isomers) [lactulose, reference compound], in series [1], the “% FA” value was 0.6%.

As to `CCN1CCCC1CNC(=O)c1cc(S(N)(=O)=O)ccc1OC` (stereo not shown) [sulpiride], in series [1], the “% FA” value is recorded as 36%.

For the compound `CN(C)C(=O)C(CCN1CCC(O)(c2ccc(Cl)cc2)CC1)(c1ccccc1)c1ccccc1` [loperamide, reference compound], the “length of the small intestine travelled by the Evans Blue dye front” value in series [9] was around 25%. As for `C/C(=C\c1cc(C)ccc1/C=C(\C)C(=O)NC(=N)N)C(=O)N=C(N)N` [Example S-3226, S-3226], the “fold more active against NHE-1 than NHE-3” value in [8] is listed as “reversed”. As for `OC[C@@H](O)[C@@H](O)[C@H](O)[C@H](O)CO` [mannitol, Mannitol, reference compound], the “% FA” value in series [1] was 26%. On to `Cc1ccccc1N1C(=O)c2cc(S(N)(=O)=O)c(Cl)cc2NC1C` (stereo not shown) [metolazone, Metolazone, reference compound], for which, in series [1], the “% FA” value was 64%. In the case of `Cc1cc(=O)n(-c2ccccc2)n1C` [phenazone], the “% FA” value in series [1] is on record as 97%. As for `CN1Cc2c(Cl)cc(Cl)cc2[C@H](c2cccc(S(=O)(=O)NCCOCCOCCOCCNC(=O)NCCCCNC(=O)NCCOCCOCCOCCNS(=O)(=O)c3cccc([C@@H]4CN(C)Cc5c(Cl)cc(Cl)cc54)c3)c2)C1` (single isomer, unassigned) [Example 244, (S or R)—N,N′-(13,20-dioxo-3,6,9,24,27,30-hexaoxa-12,14,19,21-tetraazadotriacontane-1,32-diyl)bis(3-((S or R)-6,8-dichloro-2-methyl-1,2,3,4-tetrahydroisoquinolin-4-yl)benzenesulfonamide)], the IC50 in series [4] is below 0.1 µM. In series [7], this compound displayed an AUC below 15 ng·h/mL and a Cmax below 7 ng/mL. Also, in [5], the “% Fecal water (% of control)” value is 118% of control and the “% Fecal water” value amounted to 61%. For the same compound, in series [6], the “amount of sodium excreted in the urine” value was “diminishes significantly and dose dependently”.

These data come from patent US20190374533A1, “COMPOUNDS AND METHODS FOR INHIBITING NHE-MEDIATED ANTIPORT IN THE TREATMENT OF DISORDERS ASSOCIATED WITH FLUID RETENTION OR SALT OVERLOAD AND GASTROINTESTINAL TRACT DISORDERS” (Ardelyx, Inc., priority 2008, published 2019).
